Laboratory results from PubChem BioAssay (NCI).
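Compound exposure: 48 hours, 5 concentrations, 96-well plates. The concentration for 50% growth inhibition is given as GI50. Definition used: TGI = concentration required for complete inhibition of growth.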

Tests used:
Assay in all cases: growth of human tumour cells (NCI), 48 h
UACC-62 melanoma = system: UACC-62 melanoma
OVCAR-5 ovarian = system: OVCAR-5 ovarian
SK-MEL-28 melanoma = system: SK-MEL-28 melanoma
PC-3 prostate = system: PC-3 prostate
SN12C renal = system: SN12C renal
IGROV1 ovarian = system: IGROV1 ovarian
HOP-62 NSCLC = system: HOP-62 NSCLC
HCC-2998 colon = system: HCC-2998 colon
BT-549 breast = system: BT-549 breast
KM12 colon = system: KM12 colon

| SMILES | GI50 (UACC-62 melanoma) | TGI (UACC-62 melanoma) | GI50 (OVCAR-5 ovarian) | TGI (OVCAR-5 ovarian) | GI50 (SK-MEL-28 melanoma) | TGI (SK-MEL-28 melanoma) | GI50 (PC-3 prostate) | TGI (PC-3 prostate) | GI50 (SN12C renal) | TGI (SN12C renal) | GI50 (IGROV1 ovarian) | TGI (IGROV1 ovarian) | GI50 (HOP-62 NSCLC) | TGI (HOP-62 NSCLC) | GI50 (HCC-2998 colon) | TGI (HCC-2998 colon) | GI50 (BT-549 breast) | TGI (BT-549 breast) | GI50 (KM12 colon) | TGI (KM12 colon) |
| --- | --- | --- | --- | --- | --- | --- | --- | --- | --- | --- | --- | --- | --- | --- | --- | --- | --- | --- | --- | --- |
| C=C(C)[C@@H]1CC[C@]2(CN)CC[C@]3(C)[C@H](CC[C@@H]4[C@@]5(C)CCCNC(C)(C)[C@@H]5CC[C@]43C)[C@@H]12 | 1.87 µM | 3.42 µM | 1.59 µM | 3.11 µM | 1.74 µM | 3.38 µM | 1.77 µM | 3.2 µM | 1.75 µM | 3.31 µM | 1.82 µM | 3.57 µM | 1.93 µM | 3.73 µM | – | – | – | – | – | – |
| COc1cc(/C=C2\CCCCC3=C2N=C2SC(C)=CN2C3c2cc(OC)c(OC)c(OC)c2)cc(OC)c1OC (configuration not stated) | 3.26 µM | > 100 µM | > 100 µM | > 100 µM | 89.1 µM | > 100 µM | – | – | 61.8 µM | > 100 µM | 63.5 µM | > 100 µM | 4.7 µM | > 100 µM | 74 µM | > 100 µM | 1.15 µM | > 100 µM | 36.8 µM | > 100 µM |
| C/C(=N\NC(N)=O)c1sc(-c2nc(C)c(/C(C)=N/NC(N)=O)s2)nc1C | – | > 100 µM | – | > 100 µM | – | > 100 µM | – | – | – | > 100 µM | – | > 100 µM | – | > 100 µM | – | > 100 µM | – | – | – | > 100 µM |
| O=C1C=C(Nc2ccc(Cl)cc2C(=O)c2ccccc2)c2ccccc2C1=O | – | > 100 µM | – | > 100 µM | – | > 100 µM | – | – | – | > 100 µM | – | > 100 µM | – | > 100 µM | – | > 100 µM | – | – | – | > 100 µM |
| COc1cc(C[P+](c2ccccc2)(c2ccccc2)c2ccccc2)cc(OC)c1OC | – | > 100 µM | – | > 100 µM | – | > 100 µM | – | – | – | > 100 µM | – | > 100 µM | – | > 100 µM | – | > 100 µM | – | – | – | > 100 µM |
| COc1ccc(NC(=O)CSc2nnc(-c3ccc(NC(C)=O)cc3)o2)cc1 | – | 35.2 µM | – | > 100 µM | – | 34.7 µM | – | – | – | 41.9 µM | – | 36.9 µM | – | 68.6 µM | – | 35.4 µM | – | – | – | 30 µM |
| O=C(CNc1ccc(Cl)cc1Cl)Nn1c(-c2ccccc2)nc2ccccc2c1=O | – | 19.5 µM | – | 37.5 µM | – | 43.7 µM | – | 29.9 µM | – | 30.5 µM | – | 42.2 µM | – | – | – | 31.8 µM | – | 34.5 µM | – | – |
| O/N=C1\CCCCC1C(NO)c1ccccc1 (configuration not stated) | – | > 100 µM | – | > 100 µM | – | > 100 µM | – | – | – | > 100 µM | – | > 100 µM | – | > 100 µM | – | > 100 µM | – | – | – | > 100 µM |
| O=C(c1ccc([N+](=O)[O-])cc1[N+](=O)[O-])N(/N=C/C=C/c1ccccc1)c1nnc(-c2ccccc2)c(-c2ccccc2)n1 | – | 70.4 µM | – | > 100 µM | – | 68.6 µM | – | – | – | > 100 µM | – | > 100 µM | – | > 100 µM | – | > 100 µM | – | – | – | > 100 µM |
| O=[N+]([O-])c1cccnc1N=Nc1c(O)[nH]c2ccccc12 | – | 23 µM | – | 49.2 µM | – | 74.4 µM | – | 63 µM | – | 86.5 µM | – | 53.9 µM | – | 60.7 µM | – | – | – | 25.4 µM | – | 25.6 µM |
